ChEMBL document CHEMBL1139189, “Preparation of novel antibacterial agents. Replacement of the central aromatic ring with heterocycles” (2007)
Converted amounts (≈) assume the structure as drawn.

How the values were obtained:
Type in all cases: functional
Staphylococcus aureus [1] = test: Antibacterial activity against Staphylococcus aureus UC 9218
Staphylococcus aureus [2] = test: Antibacterial activity against Staphylococcus aureus UC 9218 in presence of 10% human serum
Haemophilus influenzae = test: Antibacterial activity against Haemophilus influenzae 30063
Enterococcus faecalis = test: Antibacterial activity against Enterococcus faecalis UC 9217
[3] = tested on: Staphylococcus epidermidis; test: Antibacterial activity against Staphylococcus epidermidis UC 12084
Streptococcus pneumoniae = test: Antibacterial activity against Streptococcus pneumoniae UC 9912
Staphylococcus aureus [4] = test: Antibacterial activity against Staphylococcus aureus UC 9218 in presence of 5% human serum

| MIC (Staphylococcus aureus [1]) [µg/mL] | MIC (Staphylococcus aureus [2]) [µg/mL] | MIC (Haemophilus influenzae) [µg/mL] | MIC (Enterococcus faecalis) [µg/mL] | MIC [3] [µg/mL] | MIC (Streptococcus pneumoniae) [µg/mL] | MIC (Staphylococcus aureus [4]) [µg/mL] | Structure (SMILES) |
| --- | --- | --- | --- | --- | --- | --- | --- |
| 0.25 (≈ 0.75 µM) | 8 |  |  |  |  |  | N#Cc1ccc(NC(=O)c2cc(-c3ccccc3)on2)c(C(=O)O)c1 |
| 64 (≈ 192 µM) | > 128 |  |  |  |  |  | N#Cc1ccc(NC(=O)c2coc(-c3ccccc3)n2)c(C(=O)O)c1 |
| 0.5 (≈ 1.5 µM) | 8 |  |  |  |  |  | N#Cc1ccc(NC(=O)c2cc(-c3ccccc3)no2)c(C(=O)O)c1 |
| 0.5 (≈ 1.63 µM) | 16 |  |  |  |  |  | N#Cc1ccc(NC(=O)c2noc3ccccc23)c(C(=O)O)c1 |
| 0.5 (≈ 0.933 µM) |  | 128 (≈ 239 µM) | 32 (≈ 59.7 µM) | 4 (≈ 7.47 µM) | 4 (≈ 7.47 µM) | > 128 | O=C(Nc1ccc(Br)cc1C(=O)O)c1ccc(S(=O)(=O)N2CCc3cc(Cl)ccc32)cc1 |
| > 128 | > 128 |  |  |  |  |  | N#Cc1ccc(NC(=O)c2cc3cc(-c4ccccc4)oc3cn2)c(C(=O)O)c1 |
| 0.125 (≈ 0.329 µM) | 4 |  | > 128 | 0.125 (≈ 0.329 µM) | > 128 |  | N#Cc1ccc(NC(=O)c2cc(SCc3ccccc3)on2)c(C(=O)O)c1 |
| 0.5 (≈ 1.3 µM) | 32 |  |  |  |  |  | N#Cc1ccc(NC(=O)c2nsc(-c3ccccc3)c2Cl)c(C(=O)O)c1 |
| 2 (≈ 6.55 µM) | 32 |  |  |  |  |  | N#Cc1ccc(NC(=O)c2cc3ccccc3[nH]2)c(C(=O)O)c1 |
| 0.25 (≈ 0.773 µM) | 8 |  |  |  |  |  | N#Cc1ccc(NC(=O)c2nc3ccccc3s2)c(C(=O)O)c1 |
| 64 (≈ 137 µM) |  | > 128 | 128 (≈ 273 µM) | 16 (≈ 34.1 µM) | 64 (≈ 137 µM) | > 128 | CCCC(CCC)NS(=O)(=O)c1ccc(C(=O)Nc2cc3ccccc3cc2C(=O)O)cc1 |
| 2 (≈ 6.53 µM) | 32 |  |  |  |  |  | N#Cc1ccc(NC(=O)c2cc3ccccc3o2)c(C(=O)O)c1 |

The remaining lines, values behind:

| Structure (SMILES) | MIC (Staphylococcus aureus [1]) [µg/mL] | MIC (Staphylococcus aureus [2]) [µg/mL] | MIC (Haemophilus influenzae) [µg/mL] | MIC (Enterococcus faecalis) [µg/mL] | MIC [3] [µg/mL] | MIC (Streptococcus pneumoniae) [µg/mL] | MIC (Staphylococcus aureus [4]) [µg/mL] |
| --- | --- | --- | --- | --- | --- | --- | --- |
| N#Cc1ccc(NC(=O)c2nc(-c3ccccc3)cs2)c(C(=O)O)c1 | 8 (≈ 22.9 µM) | 32 |  |  |  |  |  |
| N#Cc1ccc(NC(=O)c2ncc(-c3ccccc3)o2)c(C(=O)O)c1 | 0.5 (≈ 1.5 µM) | 8 |  |  |  |  |  |
| CCCN(CCC)S(=O)(=O)c1ccc(C(=O)Oc2cc3ccccc3cc2C(=O)Oc2cc3ccccc3cc2C(=O)O)cc1 | 16 (≈ 25.6 µM) |  | > 128 | 32 (≈ 51.1 µM) | 16 (≈ 25.6 µM) | 8 (≈ 12.8 µM) |  |
| N#Cc1ccc(NC(=O)c2noc(-c3ccccc3)n2)c(C(=O)O)c1 | 4 (≈ 12 µM) | 32 |  |  |  |  |  |
| CCOc1nc(SCc2ccccc2)ncc1C(=O)Nc1ccc(C#N)cc1C(=O)O | 8 (≈ 18.4 µM) | > 128 |  |  |  |  |  |
| Cc1nn(-c2ccccc2)nc1C(=O)Nc1ccc(C#N)cc1C(=O)O | 4 (≈ 11.5 µM) | > 128 |  |  |  |  |  |
| N#Cc1ccc(NC(=O)c2cc3cccnc3s2)c(C(=O)O)c1 | 4 (≈ 12.4 µM) | 32 |  |  |  |  |  |
| Cc1coc2cnc(C(=O)Nc3ccc(C#N)cc3C(=O)O)cc12 | 16 (≈ 49.8 µM) | 64 |  |  |  |  |  |
| N#Cc1ccc(NC(=O)c2ncc(-c3ccccc3)s2)c(C(=O)O)c1 | 1 (≈ 2.86 µM) | 16 |  |  |  |  |  |
| N#Cc1ccc(NC(=O)c2cnccn2)c(C(=O)O)c1 | 128 (≈ 477 µM) | > 128 |  |  |  |  |  |
| CN[C@H](CC(C)C)C(=O)N[C@H]1C(=O)N[C@@H](CC(N)=O)C(=O)N[C@H]2C(=O)N[C@H]3C(=O)N[C@H](C(=O)N[C@H](C(=O)O)c4cc(O)cc(O)c4-c4cc3ccc4O)[C@H](O)c3ccc(c(Cl)c3)Oc3cc2cc(c3O[C@@H]2O[C@H](CO)[C@@H](O)[C@H](O)[C@H]2O[C@H]2C[C@](C)(N)[C@H](O)[C@H](C)O2)Oc2ccc(cc2Cl)[C@H]1O [VANCOMYCIN] |  |  | 0.015 (≈ 0.0104 µM) | 1 (≈ 0.69 µM) |  | 0.25 (≈ 0.173 µM) |  |
